Experiments:
[1] = tested on: CAL-148 (Breast Carcinoma); test: combination Emax (second highest fraction inhibited in the dose matrix, 72 h); higher = more inhibition; extreme values may be limits of the assay
Method in brief: (§1)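 Bliss excess equals the observed combination effect minus the expected value EA + EB − EA·EB, where EA and EB are the effects of each agent alone. Combination Emax is the second-highest inhibition within the matrix. Inhibition was scaled from CellTiter-Glo 2.0 luminescence, with 0 set by vehicle wells and 1 by blank wells, after 72 hours of two-drug dosing of cells plated in 1536-well plates.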

ES4 (Ewing's Sarcoma) = test: as above
Method in brief: as §1

[2] = tested on: KP-1N (Pancreatic Carcinoma); test: as above
Method in brief: as §1

[3] = tested on: LB831-BLC (Bladder Carcinoma); test: as above
Method in brief: as §1

[4] = tested on: Hs-578-T (Breast Carcinoma); test: as above
Method in brief: as §1

[5] = tested on: NCI-H82 (Small Cell Lung Carcinoma); test: as above
Method in brief: as §1

[6] = tested on: HT-1376 (Bladder Carcinoma); test: Bliss excess, mean over the matrix (fraction); higher = more synergy
Method in brief: as §1

42-MG-BA (Glioblastoma) = test: as above
Method in brief: as §1

[7] = tested on: COLO-205 (Colorectal Carcinoma); test: as above
Method in brief: as §1

[8] = tested on: HCC1806 (Breast Carcinoma); test: as above
Method in brief: as §1

[9] = tested on: B-CPAP (Thyroid Gland Carcinoma); test: as above
Method in brief: as §1

[10] = tested on: DEL (T-Cell Non-Hodgkin's Lymphoma); test: as above
Method in brief: as §1

NB10 (Neuroblastoma) = test: as above
Method in brief: as §1

[11] = tested on: KURAMOCHI (Ovarian Carcinoma); test: as above
Method in brief: as §1

[12] = tested on: UM-UC-3 (Bladder Carcinoma); test: as above
Method in brief: as §1

[13] = tested on: Ramos-2G6-4C10 (Burkitt's Lymphoma); test: as above
Method in brief: as §1

[14] = tested on: Hs-578-T (Breast Carcinoma); test: as above
Method in brief: as §1

[15] = tested on: MDA-MB-361 (Breast Carcinoma); test: as above
Method in brief: as §1

[16] = tested on: HuP-T4 (Pancreatic Carcinoma); test: as above
Method in brief: as §1

[17] = tested on: SNU-5 (Gastric Carcinoma); test: as above
Method in brief: as §1

SMILES | combination Emax [1] | combination Emax (ES4 (Ewing's Sarcoma)) | combination Emax [2] | combination Emax [3] | combination Emax [4] | combination Emax [5] | Bliss excess [6] | Bliss excess (42-MG-BA (Glioblastoma)) | Bliss excess [7] | Bliss excess [8] | Bliss excess [9] | Bliss excess [10] | Bliss excess (NB10 (Neuroblastoma)) | Bliss excess [11] | Bliss excess [12] | Bliss excess [13] | Bliss excess [14] | Bliss excess [15] | Bliss excess [16] | Bliss excess [17]
Cc1c2c(nn1C)CSCc1cc(n(C)n1)CSc1cc(c3ccccc3c1)OCCCc1c(C(=O)O)n(C)c3c-2c(Cl)ccc13 [AZD5991] + C[C@@H](Nc1cc(F)cc(F)c1)c1cc(C(=O)N(C)C)cc2c(=O)cc(N3CCOCC3)oc12 [AZD8186] (first compound max 1 µM, 7x7, partner max 3 µM) | 0.335 | 0.305 | 0.274 | 0.366 | 0.738 | 0.905 | -0.0304 | -0.0084 | -0.0444 | 0.0026 | -0.0409 | 0.0058 | -0.0444 | 0.039 | 0.0098 | -0.0074 | -0.126 | -0.0102 | 0.0505 | 0.0155
Cc1c2c(nn1C)CSCc1cc(n(C)n1)CSc1cc(c3ccccc3c1)OCCCc1c(C(=O)O)n(C)c3c-2c(Cl)ccc13 [AZD5991] + Cc1cc2ncnn2cc1Nc1ncc2c(n1)n(C1CCOCC1)c(=O)n2C [AZD7648] (first compound max 1 µM, 7x7, partner max 10 µM) | 0.45 | 0.229 | 0.279 | 0.251 | 0.63 | 0.927 | -0.0218 | -0.0299 | -0.0604 | -0.0203 | -0.0155 | 0.0005 | 0.0047 | -0.0228 | 0.0053 | 0.0227 | -0.0058 | -0.0344 | -0.0562 | 0.0269
C[C@@H]1COCCN1c1cc(C2([S@](C)(=N)=O)CC2)nc(-c2ccnc3[nH]ccc23)n1 [AZD6738] + O=C(c1cc(Cc2n[nH]c(=O)c3ccccc23)ccc1F)N1CCN(C(=O)C2CC2)CC1 [Olaparib] (first compound max 10 µM, 7x7, partner max 10 µM) | 0.935 | 0.817 | 0.425 | 0.373 | 0.898 | 0.921 | -0.0687 | 0.0142 | 0.0205 | 0.0103 | 0.0364 | 0.0399 | 0.0017 | -0.0208 | 0.0829 | -0.0881 | -0.0002 | -0.0376 | -0.0037 | -0.0464
Cc1cc2ncnn2cc1Nc1ncc2c(n1)n(C1CCOCC1)c(=O)n2C [AZD7648] + C=CCn1c(=O)c2cnc(Nc3ccc(N4CCN(C)CC4)cc3)nc2n1-c1cccc(C(C)(C)O)n1 [AZD1775] (first compound max 10 µM, partner max 1 µM) | 0.928 | 0.441 | 0.349 | 0.455 | 0.77 | 0.853 | 0.0121 | -0.052 | -0.026 | 0.0373 | -0.0273 | 0.023 | -0.0812 | -0.0501 | 0.0279 | 0.0005 | -0.121 | -0.0854 | 0.0417 | 0.0073
Cc1cc2ncnn2cc1Nc1ncc2c(n1)n(C1CCOCC1)c(=O)n2C [AZD7648] + CCN(CCO)CCCOc1ccc2c(Nc3cc(CC(=O)Nc4cccc(F)c4)[nH]n3)ncnc2c1 [AZD2811] (first compound max 10 µM, 7x7, partner max 1 µM) | 0.911 | 0.279 | 0.134 | 0.258 | 0.623 | 0.595 | -0.0382 | 0.0312 | -0.0303 | 0.071 | -0.0264 | 0.0547 | 0.0524 | 0.0084 | 0.001 | 0.188 | -0.0561 | -0.0082 | 0.0254 | 0.0543
Cc1cc2ncnn2cc1Nc1ncc2c(n1)n(C1CCOCC1)c(=O)n2C [AZD7648] + CN(C)CCCOc1ccc(-c2ccc3ncc4c(c3c2)n(C2CCOCC2)c(=O)n4C)cn1 [AZD0156] (first compound max 10 µM, 7x7, partner max 1 µM) | 0.424 | 0.0963 | 0.188 | 0.243 | 0.513 | 0.293 | 0.0037 | -0.0313 | 0.0271 | 0.0654 | -0.0206 | 0.0956 | -0.0024 | -0.064 | 0.014 | 0.0236 | -0.088 | -0.0656 | 0.0393 | 0.0166
Cc1cc2ncnn2cc1Nc1ncc2c(n1)n(C1CCOCC1)c(=O)n2C [AZD7648] + C[C@@H]1COCCN1C2=NC(=NC(=C2)C3(CC3)[S@](=N)(=O)C)C4=C5C=CNC5=NC=C4 [AZD6738] (first compound max 10 µM, 7x7, partner max 10 µM) | 0.828 | 0.686 | 0.252 | 0.3 | 0.912 | 0.899 | 0.0176 | -0.0581 | 0.0195 | 0.014 | -0.0649 | 0.0052 | -0.0306 | -0.0229 | 0.0223 | 0.0129 | -0.0744 | -0.0263 | 0.0353 | 0.0337

Source: the supplement of paper PMC11061612
